According to patent US20090143279A1 (priority 2007, published 2009):
Where two headings read alike, the source gives them in different places.

Key:
[1] = test system: mitochondrial membrane potential; assay type: cell-based, mouse
reactive oxygen species = assay type: cell-based, mouse
OXPHOS gene expression = assay type: cell-based, mouse
nuOXPHOS transcripts = assay type: cell-based, mouse
mtOXPHOS transcripts = assay type: cell-based, mouse
cytochrome c = assay type: cell-based, mouse
[2] = test system: cellular dehydrogenase activity
[3] = composite Z-score vs DMSO, Conc 20 μM
[4] = Conc 20 μM, normalized score vs mock-treated (DMSO) wells
[5] = normalized composite Z-score vs mock-treated (DMSO) wells, Conc 20 μM
[6] = composite Z-score vs mock-treated (DMSO) wells, Conc 20 μM
[7] = composite Z-score vs mock-treated (DMSO) wells, concentration of each compound in μM
[8] = 10.86 μM, composite Z-score vs DMSO
[9] = 20 μM, composite Z-score vs DMSO
[10] = composite Z-score vs DMSO, Conc 9.58 μM

Chain of cytochrome c (P62897 whole entry): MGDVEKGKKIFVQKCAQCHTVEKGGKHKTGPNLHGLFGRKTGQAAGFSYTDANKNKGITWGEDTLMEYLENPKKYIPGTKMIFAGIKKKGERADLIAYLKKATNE

## ginkgolic acid
[1]; [3]
  ΔΨm: −0.905
Reactive oxygen species; [3]
  ROS: −0.116
OXPHOS gene expression; [3]
  GE-HTS: −0.062
nuOXPHOS transcripts; [3]
  nucOX: −0.315
mtOXPHOS transcripts; [3]
  mitoOX: 0.505
Cytochrome c; [3]
  cyt c: 0.587
C2C12 myotubes; [3]
  Viability: −0.686
[2]; [3]
  MTT: −0.461

## C[C@]12CCC(=O)C=C1C=C[C@@H]1[C@@H]2CC[C@@]2(C)[C@H]1CC[C@@]2(O)CCC(=O)O [canrenoic acid]
[1]; [4]
  ΔΨm (composite Z-score): −0.749
Reactive oxygen species; [4]
  ROS (composite Z-score): 0.803
OXPHOS gene expression; [4]
  GE-HTS (composite Z-score): 0.072
nuOXPHOS transcripts; [4]
  nucOX (composite Z-score): 0.154
mtOXPHOS transcripts; [4]
  mitoOX (composite Z-score): −0.047
Cytochrome c; [4]
  cyt c (composite Z-score): 0.732
C2C12 myotubes; [4]
  Viability (composite Z-score): −0.004
[2]; [4]
  MTT (composite Z-score): −0.973

## CC(=O)O[C@H]1C[C@@H](OC(C)=O)C(C)(C)C2CC(=O)[C@]3(C)C(CC[C@@]4(C)[C@H](C(=O)O)OC(=O)C5OC543)[C@]21C (some centres unmarked) [deacetoxy(7)-7-oxokhivorinic acid]
[1]; [5]
  ΔΨm: −0.539
Reactive oxygen species; [5]
  ROS: 2.352
OXPHOS gene expression; [5]
  GE-HTS: −0.919
nuOXPHOS transcripts; [5]
  nucOX: −0.937
mtOXPHOS transcripts; [5]
  mitoOX: −0.664
Cytochrome c; [5]
  cyt c: 0.816
C2C12 myotubes; [5]
  Viability: −0.174
[2]; [5]
  MTT: −1.282

## CC(=O)OCC(=O)[C@@]1(O)[C@H](C)C[C@H]2[C@@H]3CCC4=CC(=O)C=C[C@]4(C)[C@@]3(F)[C@@H](O)C[C@@]21C [dexamethasone acetate]
[1]; [3]
  ΔΨm: −0.439
Reactive oxygen species; [3]
  ROS: 0.067
OXPHOS gene expression; [3]
  GE-HTS: 0.461
nuOXPHOS transcripts; [3]
  nucOX: 0.516
mtOXPHOS transcripts; [3]
  mitoOX: 0.330
Cytochrome c; [3]
  cyt c: 0.174
C2C12 myotubes; [3]
  Viability: −1.518
[2]; [3]
  MTT: 0.058

## C[C@]12CCC3C(CC[C@H]4C[C@H](O)CC[C@]34C)C1CC[C@@H]2O (some centres unmarked) [epiandrostanediol]
[1]; [3]
  ΔΨm: −0.156
Reactive oxygen species; [3]
  ROS: 0.113
OXPHOS gene expression; [3]
  GE-HTS: −0.069
nuOXPHOS transcripts; [3]
  nucOX: −0.203
mtOXPHOS transcripts; [3]
  mitoOX: 0.190
Cytochrome c; [3]
  cyt c: −0.201
C2C12 myotubes; [3]
  Viability: 1.143
[2]; [3]
  MTT: −0.207

## COc1cc2c(cc1OC)-c1c(oc3c4c(ccc3c1=O)OC(C(C)C)C4)CO2 (centres unmarked) [dehydrodihydrorotenone, reference compound]
[1]; [6]
  ΔΨm: 0.125
Reactive oxygen species; [6]
  ROS: 0.051
OXPHOS gene expression; [6]
  GE-HTS: −0.001
nuOXPHOS transcripts; [6]
  nucOX: −0.290
mtOXPHOS transcripts; [6]
  mitoOX: 0.535
Cytochrome c; [6]
  cyt c: −0.211
C2C12 myotubes; [6]
  Viability: −0.172
[2]; [6]
  MTT: −3.034

## COc1ccc(-c2cc(=O)c3c(OC)cc(OC)c(-c4cc(-c5cc(=O)c6c(OC)cc(OC)cc6o5)ccc4OC)c3o2)cc1 [dioonflavone]
[1]; [7]
  ΔΨm: 0.208
Reactive oxygen species; [7]
  ROS: 0.650
OXPHOS gene expression; [7]
  GE-HTS: −0.471
nuOXPHOS transcripts; [7]
  nucOX: −0.204
mtOXPHOS transcripts; [7]
  mitoOX: −0.969
Cytochrome c; [7]
  cyt c: 0.605
C2C12 myotubes; [7]
  Viability: −0.003
[2]; [7]
  MTT: −0.744

## CC(C)[N+](C)(CCOC(=O)C1c2ccccc2Oc2ccccc21)C(C)C [propantheline]
[1]; [8]
  ΔΨm: −0.893
[1]; [9]
  ΔΨm: −0.082
Reactive oxygen species; [8]
  ROS: 0.589
Reactive oxygen species; [9]
  ROS: 2.062
OXPHOS gene expression; [8]
  GE-HTS: −0.301
OXPHOS gene expression; [9]
  GE-HTS: 0.458
nuOXPHOS transcripts; [8]
  nucOX: 0.104
nuOXPHOS transcripts; [9]
  nucOX: 0.254
mtOXPHOS transcripts; [8]
  mitoOX: −1.055
mtOXPHOS transcripts; [9]
  mitoOX: 0.783
Cytochrome c; [8]
  cyt c: −0.615
Cytochrome c; [9]
  cyt c: 0.379
C2C12 myotubes; [8]
  Viability: −0.361
C2C12 myotubes; [9]
  Viability: 0.142
[2]; [8]
  MTT: −1.670
[2]; [9]
  MTT: −1.026

## spiramycin
[1]; [3]
  ΔΨm: −0.686
Reactive oxygen species; [3]
  ROS: 0.379
OXPHOS gene expression; [3]
  GE-HTS: −0.691
nuOXPHOS transcripts; [3]
  nucOX: −0.867
mtOXPHOS transcripts; [3]
  mitoOX: −0.204
Cytochrome c; [3]
  cyt c: 0.216
C2C12 myotubes; [3]
  Viability: 0.176
[2]; [3]
  MTT: −0.770

## COCCc1ccc(OCC(O)CNC(C)C)cc1 (centres unmarked) [metoprolol, reference compound]
[1]; [10]
  ΔΨm: −0.997
[1]; [3]
  ΔΨm: −0.515
Reactive oxygen species; [10]
  ROS: 0.253
Reactive oxygen species; [3]
  ROS: 0.652
OXPHOS gene expression; [10]
  GE-HTS: −0.423
OXPHOS gene expression; [3]
  GE-HTS: 0.450
nuOXPHOS transcripts; [10]
  nucOX: −0.430
nuOXPHOS transcripts; [3]
  nucOX: 0.546
mtOXPHOS transcripts; [10]
  mitoOX: −0.342
mtOXPHOS transcripts; [3]
  mitoOX: 0.241
Cytochrome c; [10]
  cyt c: 0.496
Cytochrome c; [3]
  cyt c: 0.596
C2C12 myotubes; [10]
  Viability: 0.437
C2C12 myotubes; [3]
  Viability: 0.326
[2]; [10]
  MTT: −1.894
[2]; [3]
  MTT: −1.660

## CC(=O)C[C@H]1CCCCN1 [pelletierine]
[1]; [5]
  ΔΨm: −0.120
Reactive oxygen species; [5]
  ROS: −0.071
OXPHOS gene expression; [5]
  GE-HTS: 0.036
nuOXPHOS transcripts; [5]
  nucOX: 0.077
mtOXPHOS transcripts; [5]
  mitoOX: −0.077
Cytochrome c; [5]
  cyt c: 0.349
C2C12 myotubes; [5]
  Viability: −0.418
[2]; [5]
  MTT: −0.341
